The record followed here is patent US9963452B2, “Methods, compounds, and compositions for inhibition of ROS” (AUGUSTA PHARMACEUTICALS INC., priority 2013, dated 2018).

A word on the IC50: it is the midpoint of a concentration-inhibition curve. Low values mean inhibition by little substance, high ones a need for much substance.

This assay concerns the target ROS (Homo sapiens, UniProt P08922). Put plainly: In vitro ROS enzymatic reaction assay (HTRF, Cisbio). It is filed as biochemical. Further details: ROS or EGFR enzyme, 0.008 ng/ul. As to conditions: for inhibition at 10 µM: read-out: Kinase Inhib. 10 uM (%); for inhibition at 5 µM / Kinase Inhib. 5 uM (%): compound at 5 uM; for inhibition at 5 µM: read-out: Kinase Inhib. 5 uM (%). Here is the method:
The ROS enzymatic reactions were carried out with a high throughput screening platform for phosphor-detection of kinase activity. This platform based on homogeneous time resolved fluorescence (HTRF) technology from Cisbio Bioassays, Inc. (Cisbio). […] The reaction was allowed to proceed for 30 minutes at room temperature. An equal volume of detection buffer was then added to the reaction mix.
A general note: TR-FRET usually uses a lanthanide donor and a delayed reading to cut background.

ROS, sequence (P08922 28-2347): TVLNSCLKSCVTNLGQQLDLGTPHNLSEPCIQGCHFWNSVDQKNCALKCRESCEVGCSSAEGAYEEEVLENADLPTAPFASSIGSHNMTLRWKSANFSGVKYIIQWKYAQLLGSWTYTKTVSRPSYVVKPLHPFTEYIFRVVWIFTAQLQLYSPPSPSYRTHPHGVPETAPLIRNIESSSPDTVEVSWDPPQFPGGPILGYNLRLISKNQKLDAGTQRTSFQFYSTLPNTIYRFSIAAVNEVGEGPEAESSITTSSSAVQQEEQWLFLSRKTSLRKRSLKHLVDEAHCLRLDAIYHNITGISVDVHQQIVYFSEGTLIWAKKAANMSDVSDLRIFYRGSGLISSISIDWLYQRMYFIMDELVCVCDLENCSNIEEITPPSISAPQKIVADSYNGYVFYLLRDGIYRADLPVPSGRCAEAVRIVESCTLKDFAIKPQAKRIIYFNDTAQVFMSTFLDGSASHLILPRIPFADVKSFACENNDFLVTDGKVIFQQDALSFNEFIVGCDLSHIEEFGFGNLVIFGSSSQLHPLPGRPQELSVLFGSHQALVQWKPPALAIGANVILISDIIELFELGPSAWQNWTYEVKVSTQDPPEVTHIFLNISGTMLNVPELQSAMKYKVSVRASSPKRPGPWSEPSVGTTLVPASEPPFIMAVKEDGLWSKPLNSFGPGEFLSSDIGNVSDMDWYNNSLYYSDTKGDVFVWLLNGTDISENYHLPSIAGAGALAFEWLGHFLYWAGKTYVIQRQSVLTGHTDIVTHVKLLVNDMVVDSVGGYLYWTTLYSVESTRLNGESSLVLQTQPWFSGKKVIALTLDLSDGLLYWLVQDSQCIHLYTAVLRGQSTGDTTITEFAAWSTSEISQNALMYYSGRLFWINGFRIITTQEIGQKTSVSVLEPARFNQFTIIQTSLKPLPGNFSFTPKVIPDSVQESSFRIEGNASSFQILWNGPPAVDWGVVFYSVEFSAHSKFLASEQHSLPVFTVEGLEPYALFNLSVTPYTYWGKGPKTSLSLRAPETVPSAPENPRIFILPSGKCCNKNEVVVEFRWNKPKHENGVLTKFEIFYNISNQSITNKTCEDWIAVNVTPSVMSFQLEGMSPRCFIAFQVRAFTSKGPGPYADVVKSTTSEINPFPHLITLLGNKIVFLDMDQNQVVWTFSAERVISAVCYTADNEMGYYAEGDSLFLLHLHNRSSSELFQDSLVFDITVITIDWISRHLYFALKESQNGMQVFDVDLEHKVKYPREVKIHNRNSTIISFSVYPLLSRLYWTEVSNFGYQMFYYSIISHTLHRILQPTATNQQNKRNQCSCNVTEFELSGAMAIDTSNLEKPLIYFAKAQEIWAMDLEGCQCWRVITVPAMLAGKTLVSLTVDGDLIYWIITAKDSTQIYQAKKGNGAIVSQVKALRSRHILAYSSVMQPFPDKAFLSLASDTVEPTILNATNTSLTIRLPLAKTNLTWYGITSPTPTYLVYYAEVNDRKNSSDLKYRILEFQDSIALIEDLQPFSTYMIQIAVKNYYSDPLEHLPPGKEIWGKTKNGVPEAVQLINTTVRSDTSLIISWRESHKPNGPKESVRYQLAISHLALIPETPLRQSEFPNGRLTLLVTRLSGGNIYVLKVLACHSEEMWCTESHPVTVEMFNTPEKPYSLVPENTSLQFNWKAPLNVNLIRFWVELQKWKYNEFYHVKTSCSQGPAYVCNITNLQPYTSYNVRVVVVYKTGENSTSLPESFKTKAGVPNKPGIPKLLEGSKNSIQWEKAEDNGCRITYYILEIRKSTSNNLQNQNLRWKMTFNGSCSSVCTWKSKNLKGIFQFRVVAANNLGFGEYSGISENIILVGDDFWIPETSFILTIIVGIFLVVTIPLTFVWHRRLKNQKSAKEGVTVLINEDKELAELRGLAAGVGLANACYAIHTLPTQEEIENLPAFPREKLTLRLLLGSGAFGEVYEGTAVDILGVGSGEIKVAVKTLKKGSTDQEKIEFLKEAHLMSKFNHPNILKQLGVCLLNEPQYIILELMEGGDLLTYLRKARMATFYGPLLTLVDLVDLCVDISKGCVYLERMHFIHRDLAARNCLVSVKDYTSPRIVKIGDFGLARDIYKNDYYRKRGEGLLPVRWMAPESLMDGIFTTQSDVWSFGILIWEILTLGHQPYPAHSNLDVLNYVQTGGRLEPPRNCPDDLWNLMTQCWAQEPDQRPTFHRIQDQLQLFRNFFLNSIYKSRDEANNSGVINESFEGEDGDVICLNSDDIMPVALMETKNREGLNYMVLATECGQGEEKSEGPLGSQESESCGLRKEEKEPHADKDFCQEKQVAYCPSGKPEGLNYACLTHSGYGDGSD

In the case of `O=C1NCCN1CCN1C(=O)c2ccccc2N[C@H]1c1ccccc1` [drawing 254], where the note is “ROS kinase, compound at 10 uM”, the inhibition at 10 µM was 20.3%.

On to `O=C1NN=C(c2ccccc2)/C1=C1\OC(c2ccccc2)=CS1` [drawing 255], for which half-maximal inhibition (IC50) required 160 nM. Moreover, the inhibition at 5 µM (ROS kinase) worked out at 69.2%. For the same compound, the inhibition at 10 µM (ROS kinase, compound at 10 uM) amounted to 77.8%.

For the compound `Cc1ccc(-n2cc(-c3cccs3)nc2SCc2n[nH]c(=S)n2Cc2ccccc2)cc1` [drawing 256], the “Kinase Inhib. 10 uM (%)” value (ROS kinase, compound at 10 uM) came to 28.13%.

As for `Oc1[nH]nc2nnc(-c3ccccc3)c(-c3ccccc3)c12` [drawing 257], the IC50 stood at 20400 nM. Further, under “ROS kinase, compound at 10 uM”, the inhibition at 10 µM worked out at 35.6%.

Turning to `Nc1nc(N)n(-c2ccccc2)/c(=N/c2ccccc2)n1` [drawing 258], the half-inhibitory concentration (IC50) is > 100000 nM. Besides, the inhibition at 10 µM (ROS kinase, compound at 10 uM) stood at 34.5%.

On to `CSc1sc(-c2n[nH]cc2Br)c2c1C(=O)CC(C)(C)C2` [drawing 259], for which the IC50 turned out to be 10000 nM. The inhibition at 10 µM (ROS kinase, compound at 10 uM) is 34%.

With `FC(F)(F)c1cc(-n2c(Cc3cccc4ccccc34)n[nH]c2=S)cc(C(F)(F)F)c1` [drawing 260], under “ROS kinase”, the “Kinase Inhib. 5 uM (%)” value was determined as 28.49%.

For `Cc1nc2cc(C(=O)N[C@H](c3ccccc3)c3cccnc3)ccc2[nH]1` [drawing 261], the inhibition at 5 µM (ROS kinase) amounted to 23.6%.

Turning to `Cc1cc(C)c(NC(=O)c2cc3ccccc3c(=O)s2)c(-c2cc(C)[nH]n2)c1` [drawing 263], under “ROS kinase”, the “Kinase Inhib. 5 uM (%)” value is listed as 21.55%.

With `NC(=O)c1c(NC(=O)Nc2ccccc2)sc2c1CCCC2` [drawing 264], the inhibition at 5 µM (ROS kinase) stood at 37.1%.

`Cn1c(=O)c2c(nc3n(CCO)c(-c4ccccc4)cn23)n(C)c1=O` [drawing 265]: for the setting “ROS kinase”, the “Kinase Inhib. 5 uM (%)” value was determined as 26.87%.

Turning to `CC1=NNC(=O)/C1=C\c1cn(-c2ccccc2)nc1-c1ccccc1` [drawing 266], the IC50 stood at 1220 nM. For the same compound, where the note is “ROS kinase”, the inhibition at 5 µM is 62%.

Turning to `Cc1ccc(F)cc1S(=O)(=O)Nc1cccc(C(=O)OCC(=O)NC2CCCCC2)c1` [drawing 267], the inhibition at 5 µM (ROS kinase) was 20%.

For `O=C1c2ccccc2C(=O)N1C[C@H](O)Cn1nc(-c2cccs2)c2ccccc2c1=O` [drawing 268], under “ROS kinase”, the “Kinase Inhib. 5 uM (%)” value is reported as 20.74%.

In turn, `O=c1c(O)c(-c2ccc(O)c(O)c2)oc2cc(O)cc(O)c12` [drawing 269] yielded a 50% inhibitory concentration (IC50) of 50 nM. For the setting “ROS kinase”, the inhibition at 5 µM was determined as 99.6%. The inhibition at 10 µM (ROS kinase, compound at 10 uM) worked out at 98.2%.

`O=C(NCC1CCCCC1)c1cccc(Nc2nccc(Nc3ccc4ncsc4c3)n2)c1` [drawing 270]: the inhibition at 5 µM (ROS kinase) stood at 32.6%.

The compound `CC(C)(CO)NC(=O)c1cccc(Nc2nccc(Nc3ccc4ncsc4c3)n2)c1` [drawing 271] gave an IC50 of 361 nM. For the same compound, where the note is “ROS kinase”, the inhibition at 5 µM amounted to 96.3%.

As to `Nc1nc(Nc2ccc(C(=O)N3CCCCCC3)cc2)cc(Nc2ccc3ncsc3c2)n1` [drawing 272], for the setting “ROS kinase”, the “Kinase Inhib. 5 uM (%)” value is 22.67%.

Take `O=C(NCc1cccs1)c1cccc(Nc2nccc(Nc3ccc4ncsc4c3)n2)c1` [drawing 273]: half-maximal inhibition (IC50) was put at 435 nM. Moreover, the inhibition at 5 µM (ROS kinase) was found to be 101%.

Take `O=C(NCCN1CCOCC1)c1cccc(Nc2nccc(Nc3ccc4ncsc4c3)n2)c1` [drawing 274]: the inhibition at 5 µM (ROS kinase) was 101%.

For `Cc1cccc(Nc2nccc(Nc3cccc(C(=O)NCc4ccccc4F)c3)n2)c1` [drawing 275], the inhibition at 5 µM (ROS kinase) worked out at 33.3%.

For `CN(C)CC(C)(C)CNC(=O)c1cccc(Nc2nccc(Nc3ccc4ncsc4c3)n2)c1` [drawing 276], the IC50 is 271 nM. The inhibition at 5 µM (ROS kinase) amounted to 101%.

The compound `CN1CCN(C(=O)c2cccc(Nc3nccc(Nc4ccc5ncsc5c4)n3)c2)CC1` [drawing 278] registered an IC50 of 140 nM. Besides, the inhibition at 5 µM (ROS kinase) turned out to be 99.4%.

In the case of `Cc1cccc(Nc2nccc(Nc3cccc(C(=O)NCCCN4CCOCC4)c3)n2)c1` [drawing 279], the inhibition at 5 µM (ROS kinase) came out at 92.9%.

For the compound `Nc1nc(Nc2ccc(C(=O)NCCc3ccncc3)cc2)cc(Nc2ccc3ncsc3c2)n1` [drawing 280], the inhibition at 5 µM (ROS kinase) worked out at 61.1%.

Consider `O=C(NCCc1ccccc1)c1cccc(Nc2nccc(Nc3ccc4ncsc4c3)n2)c1` [drawing 281], for which, under “ROS kinase”, the “Kinase Inhib. 5 uM (%)” value was 94.23%.

As for `Cc1ccc(CNC(=O)c2cccc(Nc3nccc(Nc4ccc5ncsc5c4)n3)c2)o1` [drawing 282], inhibition was half-maximal at 196 nM (IC50). For the same compound, the inhibition at 5 µM (ROS kinase) was 99.1%.

For the compound `C[C@H](O)CN(C[C@H](C)O)C(=O)c1cccc(Nc2nccc(Nc3ccc4ncsc4c3)n2)c1` [drawing 283], the inhibition at 5 µM (ROS kinase) came to 101%.

The compound `O=C(c1cccc(Nc2nccc(Nc3ccc4ncsc4c3)n2)c1)N1CCCCCC1` [drawing 284] registered a half-inhibitory concentration (IC50) of 450 nM. Moreover, the inhibition at 5 µM (ROS kinase) came to 100%.

On to `Cc1cccc(Nc2nccc(Nc3cccc(C(=O)NC4CCN(C)CC4)c3)n2)c1` [drawing 285], for which the IC50 turned out to be 1420 nM. Besides, the inhibition at 5 µM (ROS kinase) stood at 98.6%.

In turn, `O=C(NCc1ccc(F)cc1)c1cccc(Nc2nccc(Nc3ccc4ncsc4c3)n2)c1` [drawing 286] came in with an IC50 of 582 nM. Where the note is “ROS kinase”, the inhibition at 5 µM stood at 101%.

For `CC(C)CN(CC(C)C)C(=O)c1cccc(Nc2nccc(Nc3ccc4ncsc4c3)n2)c1` [drawing 287], the IC50 was found to be 1300 nM. The inhibition at 5 µM (ROS kinase) stood at 99.6%.

In the case of `Cc1cccc(Nc2nccc(Nc3cccc(C(=O)N(C)CCCN(C)C)c3)n2)c1` [drawing 288], under “ROS kinase”, the inhibition at 5 µM was found to be 98.6%.

In turn, `O=C(COc1ccccc1)NCC(c1cccs1)S(=O)(=O)c1ccc(Cl)cc1` (stereo not shown) [drawing 290] came in with an IC50 of 1780 nM. Besides, the inhibition at 5 µM (ROS kinase) came out at 83.8%. Further, the inhibition at 10 µM (ROS kinase, compound at 10 uM) came to 102%.

`Cc1cccc(C(=O)n2nc(-c3ccco3)nc2NCc2ccccc2)c1` [drawing 294]: the “Kinase Inhib. 5 uM (%)” value (ROS kinase) was 25.09%.

Consider `O=C(c1ccccc1)n1nc(-c2ccco2)nc1NCc1ccc(Cl)cc1` [drawing 295], for which the inhibition at 5 µM (ROS kinase) amounted to 26.6%.

`O=C(NCC(c1cccs1)S(=O)(=O)c1ccc(F)cc1)c1ccccc1` (stereo not shown) [drawing 297] displayed an IC50 of 480 nM. In addition, where the note is “ROS kinase”, the inhibition at 5 µM worked out at 85.1%.

`O=C(c1cccc(Nc2nccc(Nc3ccc4ncsc4c3)n2)c1)N1CCCCC1` [drawing 301]: the IC50 stood at 392 nM. Under “ROS kinase”, the inhibition at 5 µM is 100%.

On to `CC(C)c1nc(Nc2ccc3ncsc3c2)nc(N2CCCC2)n1` [drawing 314], for which the half-inhibitory concentration (IC50) is > 5000 nM. Further, the inhibition at 5 µM (ROS kinase) came out at 20.9%.

On to `CC(C)c1nc(Nc2ccc3ncsc3c2)nc(N2CCOCC2)n1` [drawing 315], for which the IC50 was > 5000 nM. For the same compound, the inhibition at 5 µM (ROS kinase) was 23.5%.

For the compound `CC(C)c1nc(Nc2ccc(C(=O)NCc3ccccc3)cc2)nc(Nc2cccc(Cc3nc4ccccc4s3)c2)n1` [drawing 316], the IC50 was > 5000 nM. Further, the inhibition at 5 µM (ROS kinase) came out at 45.1%.

On to `CC(C)c1nc(Nc2ccc(C(=O)NCC3CCCCC3)cc2)nc(Nc2cccc(Cc3nc4ccccc4s3)c2)n1` [drawing 317], for which the IC50 is > 5000 nM. For the same compound, the inhibition at 5 µM (ROS kinase) came out at 25.3%.

On to `CC(C)c1nc(Nc2ccc(C(=O)N3CCCCC3)cc2)nc(Nc2ccc3ncsc3c2)n1` [drawing 318], for which the IC50 is > 5000 nM. The inhibition at 5 µM (ROS kinase) came to 58.6%.

As to `CC(C)c1nc(Nc2ccc(C(=O)NC3CCCCC3)cc2)nc(Nc2ccc3ncsc3c2)n1` [drawing 319], half-maximal inhibition (IC50) required 760 nM. In addition, for the setting “ROS kinase”, the inhibition at 5 µM was 98.8%.

As to `CC(C)c1nc(Nc2ccc(C(=O)N3CCCC3)cc2)nc(Nc2ccc3ncsc3c2)n1` [drawing 320], the IC50 was 1880 nM. The inhibition at 5 µM (ROS kinase) was 92.5%.

Compound `CC(C)c1nc(Nc2ccc(C(=O)N3CCN(C)CC3)cc2)nc(Nc2ccc3ncsc3c2)n1` [drawing 321] registered an IC50 of 3890 nM. Moreover, the inhibition at 5 µM (ROS kinase) worked out at 90.7%.

Consider `CC(C)c1nc(Nc2ccc(C(=O)NCc3ccccc3)cc2)nc(Nc2ccc3ncsc3c2)n1` [drawing 322], for which half-maximal inhibition (IC50) required 3690 nM. Besides, under “ROS kinase”, the inhibition at 5 µM stood at 97.4%.

The compound `CC(C)c1nc(Nc2ccc(C(=O)N3CCOCC3)cc2)nc(Nc2ccc3ncsc3c2)n1` [drawing 323] showed an IC50 of 333 nM. In addition, where the note is “ROS kinase”, the inhibition at 5 µM worked out at 65.7%.

Turning to `CC(C)c1nc(Nc2ccc(N)cc2)nc(Nc2cc(C3CC3)[nH]n2)n1` [drawing 324], the IC50 was > 5000 nM. In addition, the inhibition at 5 µM (ROS kinase) was 20.4%.

`Cc1ccc(NC(=O)CCn2ccc3ccccc32)cc1` [drawing 335]: under “ROS kinase, compound at 10 uM”, the inhibition at 10 µM amounted to 27.5%.

On to `CCOC(=O)c1ccc(NC(=O)CCn2ccc3ccccc32)cc1` [drawing 336], for which the inhibition at 10 µM (ROS kinase, compound at 10 uM) is 24.5%.

For the compound `COc1ccc(NC(=O)CCn2ccc3ccccc32)cc1` [drawing 337], the inhibition at 10 µM (ROS kinase, compound at 10 uM) was found to be 29.5%.

As to `O=C(CCn1ccc2ccccc21)Nc1ccc(F)cc1` [drawing 338], the inhibition at 10 µM (ROS kinase, compound at 10 uM) came out at 23.2%.

As to `COc1ccc(C(F)(F)F)cc1NC(=O)CCn1ccc2ccccc21` [drawing 339], the inhibition at 10 µM (ROS kinase, compound at 10 uM) turned out to be 26.4%.

`O=C(CCn1ccc2ccccc21)Nc1cnccn1` [drawing 340]: the inhibition at 10 µM (ROS kinase, compound at 10 uM) worked out at 14.3%.

As for `CCc1cc(Br)ccc1NC(=O)CCn1ccc2ccccc21` [drawing 341], the inhibition at 10 µM (ROS kinase, compound at 10 uM) came out at 20.8%.

For the compound `NC(Cc1ccccc1)C(=O)n1ccc2cccnc21` (stereo not shown) [drawing 342], where the note is “ROS kinase, compound at 10 uM”, the inhibition at 10 µM amounted to 26.9%.

`Cc1cc(-c2ccccc2)c2ccc(N)nc2n1` [drawing 343]: the inhibition at 10 µM (ROS kinase, compound at 10 uM) came to 28.9%.

`Nc1cccc2cccc(N=C(CC(=O)O)C(=O)O)c12` [drawing 344]: where the note is “ROS kinase, compound at 10 uM”, the inhibition at 10 µM came out at 24.6%.

Turning to `COc1ccc(NC(=O)CC2=Nc3cccc4cccc(c34)NC2=O)cc1` [drawing 345], for the setting “ROS kinase, compound at 10 uM”, the inhibition at 10 µM turned out to be 26.5%.

As for `O=C(CC1=Nc2cccc3cccc(c23)NC1=O)NCc1cccc(I)c1` [drawing 346], under “ROS kinase, compound at 10 uM”, the inhibition at 10 µM was determined as 22.5%.

For the compound `C[C@@H](Oc1cc(-c2cnn(C3CCNCC3)c2)cnc1N)c1c(Cl)ccc(F)c1Cl` [drawing 354], the inhibition at 5 µM (ROS kinase) stood at 100%.
